Experimental data reported in patent publication US8530650B2, “2, 5-diamino-substituted pyrido [4, 3-D] pyrimidines as autotaxin inhibitors against cancer” (MERCK PATENT GmbH, priority 2008, dated 2013).

The compounds below were run against T1, recombinant autotaxin (Homo sapiens, UniProt Q13822) (assay: Autotaxin assay (Amplex Red, LPC substrate)). Details: 75 μM LPC, Amplex Red fluorescence, ten 1:3 dilutions starting at 30 μM.
T1 construct: made in house; host or cells: Hi5 insect cells (baculovirus)
Assay type: biochemical
Protocol: Autotaxin activity is measured indirectly by means of Amplex Red Reagent. In this course, Amplex Red is measured as fluorogenic indicator for generated H2O2. Autotaxin converts substrate lysophosphatidylcholine (LPC) to phosphocholine and lysophosphatidylic acid (LPA). After the conversion phosphocholine is reacted with alkaline phosphatase to obtain inorganic phosphate and choline. During the next step choline is oxidized with choline oxidase to yield betaine, whereby H2O2 is generated. H2O2 reacts with Amplex Red Reagent in the presence of peroxidase (Horseradish peroxidase) in an 1:1 stochiometry and yields highly fluorescent resorufin. The generated fluorescence is measured in a reaction-dependent kinetic mode in order to enable subtraction of fluorescence signals of possible other fluorescent compounds that are not part of the reaction from total measured fluorescence.
1.5 μl of a standard solution or of the compounds of the invention are dissolved in 20 mM Hepes pH 7.2 with maximally 7.7% DMSO in individual concentrations. The resulting solution is pre-incubated together with 10 μl (16 ng) of highly purified recombinant autotaxin in a black 384-hole microtiter plate for 30 min at 22° C. Thereafter, the reaction is started through the addition of 5 μL-a-lysophosphatidylcholine (LPC), whereby the final concentration of LPC is 75 μM. The mixture is incubated for 90 min. at 37° C. After the incubation Amplex Red Reagent, peroxidase (Horseradish peroxidase) and choline oxidase are added. The fluorescence is immediately measured at a wavelength of 612 nm with an excitation wavelength of 485 nm in a “Tecan Ultra multimode” fluorescence reader. The activity of autotaxin is indirectly calculated via the amount of detected generated H2O2.
For IC50 analysis, ten serial 1:3 dilutions starting at 30 μM for each compound were run in duplicates.
IC50 values were calculated on normalized data. For normalization, control wells were added to each assay plate and the signal of uninhibited control wells was set to 100%, whereas the signal inhibited by 500 μM C14 LPA, (Avanti Polar Lipids, Cat# 857120P) was set to 0%. Curves were fitted and IC50 values calculated by the following model using proprietary analysis software: Y=Bottom+(100−Bottom)/(1+10^((LogIC50−X)*HillSlope))
Where X is the logarithm of concentration. Y is the response; Y starts at Bottom and goes to Top with a sigmoid shape.
Protein: Recombinant autotaxin (baculoviral Hi5 expression)
Substrate: L-a-lysophosphatidyl choline (chicken egg); Avanti Polar Lipids #830071 P
Standard: C14 LPA, Avanti Polar Lipids, Cat# 857120P
Detection Reagent Amplex Red Reagent; Invitrogen #A12222; dissolved in 1.923 ml of DMSO peroxidase Type VI-A (horseradish), Sigma #P6782; dissolved in 7.45 ml of test buffer, Choline Oxidase; Sigma #C5896; dissolved in 2.47 ml test buffer
Detection Reagent Mix: 1:100 dilution of Amplex Red Regent in test buffer
Test buffer: 200 mM Tris-HCl, Merck, Cat # 1.08219, pH 7.9; 0.1% BSA, lipid free, Roche Cat#775835

Row | SMILES | IC50 [µM]
1 | Clc1ccccc1CNc1ncc2c(N3CCN(c4ncccn4)CC3)nccc2n1 [Compound 112, (2-Chloro-benzyl)-[5-(4-pyrimidin-2-yl-piperazin-1-yl)-pyrido[4,3-d]pyrimidin-2-yl]-amine] | < 30
2 | Fc1ccc(Nc2nccc3nc(NCc4ccc(Cl)cc4)ncc23)c(F)c1 [Compound 45, N2-(4-Chloro-benzyl)-N5-(2,4-difluoro-phenyl)-pyrido[4,3-d]pyrimidine-2,5-diamine] | < 30
3 | Fc1ccc(CNc2ncc3c(Nc4ccc5c(c4)OCO5)nccc3n2)cc1 [Compound 26, N5-Benzo[1,3]dioxol-5-yl-N2-(4-fluoro-benzyl)-pyrido[4,3-d]pyrimidine-2,5-diamine] | < 30
4 | COc1ccc(CNc2ncc3c(N4CCCC(C(=O)N5CCN(c6ccccn6)CC5)C4)nccc3n2)cc1 (stereo not drawn) [Compound 95, {1-[2-(4-Methoxy-benzylamino)-pyrido[4,3-d]pyrimidin-5-yl]-piperidin-3-yl}-(4-pyridin-2-yl-piperazin-1-yl)-methanone] | < 30
5 | CCN(CC)C(=O)C1CCCN(c2nccc3nc(NCc4ccccc4Cl)ncc23)C1 (stereo not drawn) [Compound 91, 1-[2-(2-Chloro-benzylamino)-pyrido[4,3-d]pyrimidin-5-yl]-piperidine-3-carboxylic acid diethylamide] | < 30
6 | Fc1ccc(CNc2ncc3c(Nc4ccc(F)cc4F)nccc3n2)cc1 [Compound 25, N5-(2,4-Difluoro-phenyl)-N2-(4-fluoro-benzyl)-pyrido[4,3-d]pyrimidine-2,5-diamine] | < 30
7 | Clc1ccccc1CNc1ncc2c(NCCCN3CCCC3)nccc2n1 [Compound 17, N2-(2-Chloro-benzyl)-N5-(3-pyrrolidin-1-yl-propyl)-pyrido[4,3-d]pyrimidine-2,5-diamine] | < 30

Second part, the compound after the results:

Row | IC50 [µM] | SMILES
8 | < 5 | O=C(C1CCCN(c2nccc3nc(NCc4ccccc4Cl)ncc23)C1)N1CCN(c2ccccn2)CC1 (stereo not drawn) [Compound 99, {1-[2-(2-Chloro-benzylamino)-pyrido[4,3-d]pyrimidin-5-yl]-piperidin-3-yl}-(4-pyridin-2-yl-piperazin-1-yl)-methanone]
9 | < 30 | COc1ccc(CNc2ncc3c(Nc4ccc(F)c(F)c4)nccc3n2)cc1 [Compound 58, N5-(3,4-Difluoro-phenyl)-N2-(4-methoxy-benzyl)-pyrido[4,3-d]pyrimidine-2,5-diamine]
10 | < 10 | O=C(C1CCCN(c2nccc3nc(NCc4ccc(Cl)cc4)ncc23)C1)N1CCN(c2ccccn2)CC1 (stereo not drawn) [Compound 94, {1-[2-(4-Chloro-benzylamino)-pyrido[4,3-d]pyrimidin-5-yl]-piperidin-3-yl}-(4-pyridin-2-yl-piperazin-1-yl)-methanone]
11 | < 30 | Cc1ccccc1Nc1nccc2nc(NCc3ccc(F)cc3)ncc12 [Compound 22, N2-(4-Fluoro-benzyl)-N5-o-tolyl-pyrido[4,3-d]pyrimidine-2,5-diamine]
12 | < 10 | CN(C)CCNC(=O)C1CCN(c2nccc3nc(NCc4ccccc4Cl)ncc23)CC1 [Compound 64, 1-[2-(2-Chloro-benzylamino)-pyrido[4,3-d]pyrimidin-5-yl]-piperidine-4-carboxylic acid (2-dimethylamino-ethyl)-amide]
13 | < 5 | COCCCNC(=O)C1CCN(c2nccc3nc(NCc4ccccc4Cl)ncc23)CC1 [Compound 73, 1-[2-(2-Chloro-benzylamino)-pyrido[4,3-d]pyrimidin-5-yl]-piperidine-4-carboxylic acid (3-methoxy-propyl)-amide]
14 | < 5 | CC(=O)OCC(=O)N1CCN(c2nccc3nc(NCc4ccccc4Cl)ncc23)CC1 [Compound 126, Acetic acid 2-{4-[2-(2-chloro-benzylamino)-pyrido[4,3-d]pyrimidin-5-yl]-piperazin-1-yl}-2-oxo-ethyl ester]
15 | < 5 | O=C(C1CCN(c2nccc3nc(NCc4ccccc4Cl)ncc23)CC1)N1CCCC1 [Compound 66, {1-[2-(2-Chloro-benzylamino)-pyrido[4,3-d]pyrimidin-5-yl]-piperidin-4-yl}-pyrrolidin-1-yl-methanone]
